The text below walks through data of patent US10883996B2, “Methods of identifying signaling modulators of the trimeric TNFa” (UCB BIOPHARMA SRL, priority 2015, dated 2021).

Entries after “also recorded” stand apart in the source; their conditions may differ.

For this experiment, the target named is T1, TNFα trimer / TNFR1 (Homo sapiens, UniProt P01375).
T1 construct: human TNFα residues V77-L233 followed by two additional repeats; human TNFα residues D86-L233 linked together by Ser-Gly-Ser
In words: Analytical size exclusion chromatography of TNFα/TNFR1/compound complexes, protocol 2. Type of experiment: binding. Particulars: compound 200 μM (1:10 trimers:compound); 3.5 fold excess of receptors. The protocol: Size exclusion chromatography was used to determine the number of TNFR1 receptors bound to TNFα in the absence or presence of different compounds. Compound (2) was tested under the conditions described in protocol 1 below. Compound (5) was tested as described in protocol 2.
Compound (5) was added to 20 μM of TNFα trimer at a final concentration of 200 μM (ratio of 1:10 trimers:compound) with DMSO concentration held constant at 2.0%. The sample of TNFα and compound were incubated overnight at a temperature of 4° C. Receptors at a final concentration of 35 μM were added to 10 μM trimer-compound complex (3.5 fold excess of receptors over the trimer-compound complex). The final concentration of DMSO was 1.0%. The mixture was incubated for 1 hour at 22° C.
The conditions for analytical size exclusion using HPLC were as follows: injection volume: 50 μl; Superdex 200HR 10/300, L×I.D. 30 cm×10 mm column, 13-15 μm particle size; and a buffer of 10 mM HEPES, pH 7.5, 150 mM NaCl.
The TNFα was a single polypeptide chain of trimeric human TNFα composed of human TNFα residues V77-L233 followed by two additional repeats of human TNFα residues D86-L233 linked together by Ser-Gly-Ser (sequences are based on UniProt […]). Human TNFR1 was (V43-N184)(N54D, C182S) based on sequence UniProt P19438. […]

T1 sequence (P01375 with tags, fused parts or gaps): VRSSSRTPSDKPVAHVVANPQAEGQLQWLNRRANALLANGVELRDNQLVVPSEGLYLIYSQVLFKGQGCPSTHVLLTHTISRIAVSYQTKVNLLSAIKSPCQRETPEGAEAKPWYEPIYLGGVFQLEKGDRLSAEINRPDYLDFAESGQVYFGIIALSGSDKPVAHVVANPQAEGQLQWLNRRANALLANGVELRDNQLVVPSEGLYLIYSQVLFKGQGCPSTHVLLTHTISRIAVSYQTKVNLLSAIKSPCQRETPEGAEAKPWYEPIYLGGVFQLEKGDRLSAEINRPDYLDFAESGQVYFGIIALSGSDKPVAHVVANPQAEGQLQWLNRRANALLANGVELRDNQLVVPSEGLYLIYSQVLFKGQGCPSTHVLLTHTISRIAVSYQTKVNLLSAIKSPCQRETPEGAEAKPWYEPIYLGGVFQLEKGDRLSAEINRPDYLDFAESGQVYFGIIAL

On to `Cc1nc2cc(F)c(-c3cnc(N4CC(O)(C(F)(F)F)C4)nc3)cn2c1[C@@H](O)c1ccccc1OC(F)F` (single isomer, unassigned) [compound (5)], for which the “number of receptors binding per trimer (SEC peak position vs mutant TNFα controls)” value was “a mixture of two receptors and one receptor; also recorded: moved closer to 1 receptor bound”.
